# Results taken from patent EP1369114A1, “Use of tryptophan metabolites as pharmaceutical agents” (Terness, Peter, Priv. Doz. Dr., priority 2002, dated 2003).
# Columns and labels:
# Assay type in all cases: cell-based, human
# T cells = assay: Detection of cell death: 7-AAD staining of anti-CD3 stimulated lymphocytes, FACScan; conditions: anti-CD3, 3 days; 1501 µM kynurenine, 349µM 3-hydroxykynurenine, 510µM 3-hydroxyanthranilic acid, mixture 64 µM of each compound
# Protocol: Lymphocytes were stimulated in culture with anti-CD3 monoclonal antibody (s. above) in the presence or absence (control) of kynurenine (1501µM), 3-hydroxyanthranilic acid (510µM), 3-hydroxykynurenine (348µM), or metabolite mixture (64µM kynurenine + 64µM 3-hydroxykynurenine + 64µM anthranilic acid + 64µM 3-hydroxyanthranilic acid + […] quinolinic acid). After 3 days the cells were washed and resuspended in PBS (10^6/ml). Thereafter, the cells (100µ1 suspension) were labeled with anti-CD3-FITC antibody (3 µl), stained with 7-AAD (5µl) for 15 min, and the percentage of 7-AAD-positive (dead) T cells was determined in a FACScan. In an other experiment T cells, B cells, NK-cells, or DCs were separated from PBMCs by magnetic beads or generated as described, and cultured (5x10^5 cells/ml) with a mixture of kynurenine metabolites (kynurenine + 3-hydroxykynurenine + anthranilic acid + 3-hydroxyanthranilic acid + quinolinic acid)(8, 16, or 32µM respectively for each compound). In one setting T cells were activated with anti-CD3 antibody. Cell death was measured daily for 5 days by 7-AAD staining and expressed in percentage of dead cells.
# CD3-stimulated T cells = assay: CD3 stimulation of T cells: metabolite titration curves, 3[H]-thymidin incorporation; conditions: anti-CD3 antibody, 3 days; for IC50: Homo sapiens, T-cell, 72 h, single substance, read-out: I50 of proliferation of CD3-stimulated T cells
# Description: • (a) Allogeneic T-cell response. DCs were infected with recombinant IDO-adeno-GFP (DC-IDO-GFP), IDO-adeno (DC-IDO) or with control adenoviruses (DC-adeno) at a MOI (multiplicity of infection) up to 500 for 2 days. Lymphocytes (PBMCs) were separated from peripheral blood of healthy donors by density gradient centrifugation and typed for HLA antigens. Only HLA-DR-different responder lymphocytes were used for DC-induced stimulation. Native DCs only, lymphocytes only, native DCs + allogeneic lymphocytes, DC-IDO-GFP + allogeneic lymphoytes, DC-IDO + allogeneic lymphoytes, DC-adeno + allogeneic lymphocytes (each time 10^5 DC + 10^5 lymphocytes in 0.2ml medium) were cultured in RPMI 1640 medium (Gibco BRL Life Technologies GmbH, Eggenstein, Germany) with 10% fetal calf serum (FCS) (final tryptophan concentration 5.25 mg/l = 25.69 uM) and Penicillin G/Streptomycin. […] In order to verify whether IDO expression or adenovirus infection harm the DCs, 10^5 cells were infected with IDO-adeno-GFP, IDO-adenovirus, or adenovirus only at a stepwise decreasing MOI (500, 250, 125, ........ 3.9) and cell viability was measured in FACS following double staining with 7-AAD and anti-CD83 antibody-PE. The percentage of dead cells never exceeded 30% for any MOI following IDO-adeno-GFP- or IDO-adeno-infection and 40% following adenovirus(control)-infection. Moreover, these values were not higher than those of native DCs cultured for the same period of time. The experiment was repeated using ethidium bromide or trypan blue staining with virtually the same result. […] Peripheral blood lymphocytes were cultured (10^5 cells/well) in RPMI 1640 (10% FCS) with anti CD3 monoclonal antibody (Ortho Diagnostic Systems Inc., Raritan, NJ) (final dilution 1:200). […] Kynurenine, 3-hydroxykynurenine, anthranilic acid, 3-hydroxyanthranilic acid, and quinolinic acid (Sigma-Aldrich Chemie GmbH, Taufkirchen, Germany)(for all substances purity>98%) were dissolved in RPMI 1640 and added to cell cultures at various concentrations. In an other experiment, to determine whether the metabolites have an additive effect, equal concentrations of the compounds were mixed and added to the cultures. […] Positive controls consisted of CD3-stimulated cells without metabolites and negative controls of unstimulated cells. • (d) Restimulation of suppressed T cells. Lymphocytes (10^5 cells/well) were cultured in RPMI 1640 (10% FCS) with anti-CD3 monoclonal antibody (final dilution 1:200) and kynurenine (dilution series). […] Controls consisted of cells prestimulated with anti-CD3 but not pretreated with kynurenine. In an other restimulation experiment lymphocytes were stimulated with allogeneic DCs as described, in the presence (47-1500µM) or absence of kynurenine. Control cultures contained DCs or lymphocytes only. After 5 days the cells were extensively washed, and restimulated with an identical number of DCs derived from the same donor or from third party donors. […] In order to define the concentration of tryptophan which reduces T- lymphocyte proliferation in our test system, 10^5 lymphocytes were incubated in tryptophan-free RPMI 1640 medium (Gibco BRL Life Technologies) with or without 10% FCS, stimulated with anti-CD3 monoclonal antibody, and various amounts (0-38µM) of tryptophan were added. Unimpaired proliferation was observed down to 0.30µM (medium with FCS) and 1 .20µM (without FCS). Complete inhibition was not obtained at any concentration (positive control 100% proliferation; maximal suppression in medium with FCS: approx. 66% and without FCS: approx. 33%). All cell cultures were done in triplicate.
# All tests were carried out in triplicate and results are given as mean +standard deviation. […] Thereafter, the concentration of substance giving 50% proliferation was calculated by regression.
# [1] = test system: T- lymphocyte proliferation; assay: Tryptophan titration curve: proliferation of anti-CD3 stimulated lymphocytes in tryptophan-free medium; conditions: for maximal suppression: positive control 100% proliferation
# Description: • (a) Allogeneic T-cell response. DCs were infected with recombinant IDO-adeno-GFP (DC-IDO-GFP), IDO-adeno (DC-IDO) or with control adenoviruses (DC-adeno) at a MOI (multiplicity of infection) up to 500 for 2 days. Lymphocytes (PBMCs) were separated from peripheral blood of healthy donors by density gradient centrifugation and typed for HLA antigens. Only HLA-DR-different responder lymphocytes were used for DC-induced stimulation. Native DCs only, lymphocytes only, native DCs + allogeneic lymphocytes, DC-IDO-GFP + allogeneic lymphoytes, DC-IDO + allogeneic lymphoytes, DC-adeno + allogeneic lymphocytes (each time 10^5 DC + 10^5 lymphocytes in 0.2ml medium) were cultured in RPMI 1640 medium (Gibco BRL Life Technologies GmbH, Eggenstein, Germany) with 10% fetal calf serum (FCS) (final tryptophan concentration 5.25 mg/l = 25.69 uM) and Penicillin G/Streptomycin. After 5 days, ^3[H]-thymidin was added for 12hrs and the number of counts (counts per minute = cpm) determined in a (3-counter (Inotech Biosystems, Lansing, MI). In order to verify whether IDO expression or adenovirus infection harm the DCs, 10^5 cells were infected with IDO-adeno-GFP, IDO-adenovirus, or adenovirus only at a stepwise decreasing MOI (500, 250, 125, ........ 3.9) and cell viability was measured in FACS following double staining with 7-AAD and anti-CD83 antibody-PE. The percentage of dead cells never exceeded 30% for any MOI following IDO-adeno-GFP- or IDO-adeno-infection and 40% following adenovirus(control)-infection. Moreover, these values were not higher than those of native DCs cultured for the same period of time. […] After 2 days, cell proliferation was assessed by measuring ^3[H]-thymidin incorporation (cpm) as described. • (c) Tryptophan metabolite titration curves. […] After 2 days, ^3[H] thymidin was added and the number of counts recorded. […] After another 2 days, ^3[H] thymidin was added and cpm determined. […] 3[H] thymidin was added to all cultures and the number of counts (cpm) determined. • (e) Tryptophan titration curve. […]
# [2] = test system: T cells stimulated by allogeneic DCs; assay: Allogeneic T-cell response: lymphocyte proliferation induced by allogeneic dendritic cells, 3[H]-thymidin incorporation; conditions: 6 days
# Description: DCs were generated from CD14-positive blood monocytes as previously described ("Schuler G. and N. Romani", 1997, Adv. Exp. Med. Biol. 417:7-13). Briefly, peripheral blood mononuclear cells of an HLA-typed healthy donor were separated by density gradient centrifugation and CD14-positive monocytes were isolated by adherence to culture dishes. Non-adherent cells were discarded. After culture of monocytes in the presence of human rGM-CSF (666 Units/ml) and rIL-4 (1000 Units/ml) for 7 days, rTNF-α (10 ng/ml) was added for an additional 2 days to induce maturation of DC. Characterization of DC phenotype was performed by flow cytometry using the following mouse monoclonal antibodies: anti-CD 14-FITC, anti-HLA-DR-FITC, anti-CD 1a-PE, anti-CD86-PE, and anti-CD83-PE (BD Biosciences Heidelberg, Germany). DCs were kept in liquid nitrogen until use.
# • (a) Allogeneic T-cell response. DCs were infected with recombinant IDO-adeno-GFP (DC-IDO-GFP), IDO-adeno (DC-IDO) or with control adenoviruses (DC-adeno) at a MOI (multiplicity of infection) up to 500 for 2 days. […] After 5 days, ^3[H]-thymidin was added for 12hrs and the number of counts (counts per minute = cpm) determined in a (3-counter (Inotech Biosystems, Lansing, MI). In order to verify whether IDO expression or adenovirus infection harm the DCs, 10^5 cells were infected with IDO-adeno-GFP, IDO-adenovirus, or adenovirus only at a stepwise decreasing MOI (500, 250, 125, ........ 3.9) and cell viability was measured in FACS following double staining with 7-AAD and anti-CD83 antibody-PE. The percentage of dead cells never exceeded 30% for any MOI following IDO-adeno-GFP- or IDO-adeno-infection and 40% following adenovirus(control)-infection. […] After 2 days, cell proliferation was assessed by measuring ^3[H]-thymidin incorporation (cpm) as described. • (c) Tryptophan metabolite titration curves. […] After 2 days, ^3[H] thymidin was added and the number of counts recorded. […] After another 2 days, ^3[H] thymidin was added and cpm determined. […]
structure (smiles),measurement,setting,value
Nc1c(O)cccc1C(=O)O [3-hydroxyanthranilic acid],dead (7-AAD-positive) T cells (in words),T cells,virtually all cells died
same,IC50,CD3-stimulated T cells,96 µM
same,suppression of T cell response (in words),CD3-stimulated T cells,strongly suppress T cells
N[C@@H](Cc1c[nH]c2ccccc12)C(=O)O [tryptophan],lowest tryptophan concentration with unimpaired proliferation,[1]; medium with FCS,0.30 µM
same,maximal suppression,[1]; medium with FCS,approx. 66%
same,maximal suppression,[1]; medium without FCS,approx. 33%
Nc1c(O)cccc1C(=O)CC(N)C(=O)O (centres unmarked) [3-hydroxykynurenine],dead (7-AAD-positive) T cells (in words),T cells,virtually all cells died
same,IC50,CD3-stimulated T cells,187 µM
same,suppression of T cell response (in words),CD3-stimulated T cells,strongly suppress T cells
Nc1ccccc1C(=O)O [anthranilic acid],suppression of T cell response (in words),CD3-stimulated T cells,suppressive but at higher concentrations
Nc1ccccc1C(=O)C[C@@H](N)C(=O)O [D-kynurenine],suppression of T cell response (in words),CD3-stimulated T cells,The same effect was noted
same,inhibition of proliferation of T cells stimulated by allogeneic DCs (in words),[2],The same effect was noted
NC(CC(=O)c1ccccc1NC=O)C(=O)O (centres unmarked) [N-formylkynurenine],suppression of T cell response (in words),CD3-stimulated T cells,Suppression of T-cell response can also be achieved
O=C(O)c1cccnc1C(=O)O [quinolinic acid],suppression of T cell response (in words),CD3-stimulated T cells,suppressive but at higher concentrations
